Reference: patent US20140065237A1, “BIOLOGICALLY ACTIVE FOOD ADDITIVE FOR THE PROPHYLAXIS OF ERECTILE DYSFUNCTION IN MEN” (priority 2011, published 2014)

Tested on: men with the diagnosis of erectile dysfunction and chronic prostatitis
Experiment: Clinical study of the BAA versus its single components (IIEF questionnaire, patient diaries), medical center "Secrets of Longevity"
Type: in vivo, human
Conditions: 2 tablets twice a day
Protocol: For the prevention of erectile dysfunction, the BAA in compound of L-Arginine—250 mg, drone brood—50 mg is taken by 2 tablets two times per day during one month out of meals. An interval during the intake is one month. […] The study included […] with the diagnosis of erectile dysfunction and chronic prostatitis, at the age from 30 to 50 years old (average age is 43). The duration of erectile dysfunction was from 6 months to 3 years (average duration is one year). A consent was received from all males participated in the study.
The experimental group (10 patients) was appointed to the proposed agent by 2 tablets twice a day in the morning hours. The 1-st experimental group (10 patients) was administered L-Arginine—250 mg, 2 tablets 2 times per day in the morning hours.
The 2-nd experimental group (10 patients) was administered drone brood—50 mg, 2 tablets 2 times per day in the morning hours. Patients' examination involved the checkup, collection of complains in accordance with the symptoms scale 1P88, and questionnaire of International Index of Erectile Function (IIEF), with consideration of objective factors: ultrasound investigation of prostate gland, clinical blood analysis, urine test, including the results of prostate gland palpation. Patients' examination took place before and after the agent prescription.
An efficiency of the claimed agent was evaluated by the change of IIEF's exponents. Within a week, prior to and during the course of agent intake, patients were keeping a diary of disease estimation, and they recorded the frequency and degree of sexual attraction, valuation of erection, frequency of sexual intercourse and their sensations in each case.

SMILES: N=C(N)NCCC[C@H](N)C(=O)O [L-Arginine]
- full sexual relations provided or not: not providing the full sexual relations
- effect starts within ... after taking of the agent (irrespective of age and extent of sexual disorder): 2 to 3 h
- erectile function (10 patients per group): 20%
- feeling of orgasm, change of sensations (10 patients per group): 20%
- number of ejaculations has grown up (share of cases) (10 patients per group): 20%
- overall satisfaction (10 patients per group): 20%
- refractory period after the emission of seminal fluid has not changed (share of patients) (10 patients per group): 100%
- sexual intercourse satisfaction (10 patients per group): 20%
- strengthening of sexual attraction (libido) recorded (share of cases) (10 patients per group): 100%
